The results in this text go back to patent publication US20070238765A1, “Heterocyclic GABAA subtype selective receptor modulators” (Roche Palo Alto LLC, priority 2006, published 2007).

The target in series [1] is T1, GABAA α1β2γ2 (Homo sapiens, UniProt P14867+P18507+P47870).
T1 construct: expressed in transfected cells; host or cells: HEK293
Briefly: 35S-TBPS binding assay, HEK293 membranes with GABAA α1β2γ2 construct. The conditions noted are these: 35S-TBPS 5 nM, GABA 1 μM, 2 hours at room temperature, read-out: α1β2γ2 (35S-TBPS binding, pIC50) (converted). On the procedure: (§1) The binding assay is based on the assay reported by K. Gee et al., Eur. J. Pharmacol. 1987, 136, 419-423.
(§2) Homogenate preparation: Membrane preparations of HEK293 cells containing either GABAA α1β2γ2 or GABAA α2β3γ2 constructs were performed according to a modified procedure previously described by Gee et al. (supra). Whole HEK 293 cells in D-PBS (calcium/magnesium free) buffer adjusted to pH 7.4 were centrifuged at 7,280×g for 20 m. After discarding the supernatant, the pellet was resuspended in the buffer and centrifuged at 1,820×g for 10 m. Afterwards, the supernatant was discarded and the pellet resuspended in ice-cold preparation buffer (50 mM Tris HCl pH 7.4, 4° C. and 150 mM KCl), homogenized for 30 sec using a Brinkmann Polytron PT3000 (setting 6) and centrifuged at 48,000×g for 30 m at 4° C. The centrifugation and homogenization procedure was repeated two more times for a total of 3 times before resuspending the membranes at a final protein concentration of 0.5 mg/mL. Aliquots (30 mL) of the final membrane preparation were then centrifuged at 48,000×g for 30 m, and the resulting pellets were stored at −80° C. until required.
(§3) 35S-TBPS binding assay. Membrane pellets containing either GABAA α1β2γ2 or GABAA α2β3γ2 constructs were thawed on ice, resuspended in 10 mL of 50 mM Tris HCl pH7.4, 4° C. and 150 mM KCl and centrifuged at 48,000×g, 30 m at 4° C. After discarding the supernatant, the pellet was resuspended in 30 mL incubation buffer (50 mM Tris HCl pH 7.4, 25° C. and 150 mM KCl) at approximately 0.5 mg/mL protein concentration. In 35S-TBPS competition studies, HEK293 membranes were incubated with 35S-TBPS (5 nM final) and GABA (1 μM) in the absence or presence of competitor at concentrations ranging from 0.01 nM to 10 μM in 125 μL incubation buffer for 2 hours at room temperature (˜22° C.). Non-specific binding was assayed with picrotoxin (100 μM final concentration). The binding reaction was terminated by vacuum filtration through GF/B filters previously soaked in 0.1% polyethylenimine followed by 3×1 mL washes with ice cold wash buffer (50 mM Tris HCl pH7.4, 4° C. and 150 mM KCl). Measurement of bound radioactivity was performed using a Packard Microplate 96 well topcount scintillation counter. Analysis of competition curves and estimation of pIC50 values of test compounds were performed using the software programs ActivityBase and/or Prism (version 3.0).

Series [2] concerns the target T2, GABAA α2β3γ2 (Homo sapiens, UniProt P18507+P28472+P47869).
T2 construct: expressed in transfected cells; host or cells: HEK293
The experiment in a line: 35S-TBPS binding assay, HEK293 membranes with GABAA α2β3γ2 construct. The conditions noted are these: 35S-TBPS 5 nM, GABA 1 μM, 2 hours at room temperature, read-out: α2β3γ2 (35S-TBPS binding, pIC50) (converted). The procedure: as §1, §2, §3

Counter-ions that a name gives are not always drawn.

T1 sequence (P14867 28-456): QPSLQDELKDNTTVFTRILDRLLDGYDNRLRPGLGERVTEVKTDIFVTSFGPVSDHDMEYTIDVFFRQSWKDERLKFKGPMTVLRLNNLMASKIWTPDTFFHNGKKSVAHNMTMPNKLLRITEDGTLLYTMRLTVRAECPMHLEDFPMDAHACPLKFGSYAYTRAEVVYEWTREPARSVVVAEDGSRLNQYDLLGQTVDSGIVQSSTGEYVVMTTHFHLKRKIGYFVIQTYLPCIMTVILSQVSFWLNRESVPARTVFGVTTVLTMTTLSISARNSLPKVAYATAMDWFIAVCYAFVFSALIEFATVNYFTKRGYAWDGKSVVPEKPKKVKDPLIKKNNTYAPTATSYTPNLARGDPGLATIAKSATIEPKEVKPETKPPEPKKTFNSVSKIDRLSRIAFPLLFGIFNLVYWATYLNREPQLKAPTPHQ
T1 sequence (P47870 25-512 limits assumed): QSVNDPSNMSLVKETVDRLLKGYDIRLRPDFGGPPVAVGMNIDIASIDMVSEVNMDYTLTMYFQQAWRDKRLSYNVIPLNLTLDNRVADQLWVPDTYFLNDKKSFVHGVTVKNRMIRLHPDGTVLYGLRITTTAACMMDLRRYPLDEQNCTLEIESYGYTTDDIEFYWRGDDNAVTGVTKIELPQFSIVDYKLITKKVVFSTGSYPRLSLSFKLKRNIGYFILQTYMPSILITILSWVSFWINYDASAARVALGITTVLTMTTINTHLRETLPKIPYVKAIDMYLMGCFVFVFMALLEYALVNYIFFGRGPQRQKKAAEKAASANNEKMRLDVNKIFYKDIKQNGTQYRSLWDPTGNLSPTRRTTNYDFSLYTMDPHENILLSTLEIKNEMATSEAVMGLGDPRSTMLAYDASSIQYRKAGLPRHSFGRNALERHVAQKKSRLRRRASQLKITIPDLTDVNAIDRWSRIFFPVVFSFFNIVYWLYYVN
T1 sequence (P18507 40-475): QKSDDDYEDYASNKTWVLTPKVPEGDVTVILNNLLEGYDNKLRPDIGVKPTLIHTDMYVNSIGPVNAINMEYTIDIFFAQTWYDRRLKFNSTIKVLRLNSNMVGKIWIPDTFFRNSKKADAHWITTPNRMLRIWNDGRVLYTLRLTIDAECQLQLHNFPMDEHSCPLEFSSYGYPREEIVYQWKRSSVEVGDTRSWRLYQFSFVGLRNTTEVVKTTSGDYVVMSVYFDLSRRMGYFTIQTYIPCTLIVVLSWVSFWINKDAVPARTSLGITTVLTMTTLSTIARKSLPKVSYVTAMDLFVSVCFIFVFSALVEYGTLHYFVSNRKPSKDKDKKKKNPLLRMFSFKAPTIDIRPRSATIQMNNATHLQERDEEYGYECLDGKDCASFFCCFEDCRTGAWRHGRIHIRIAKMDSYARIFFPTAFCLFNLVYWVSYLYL
T2 sequence (P47869 29-451): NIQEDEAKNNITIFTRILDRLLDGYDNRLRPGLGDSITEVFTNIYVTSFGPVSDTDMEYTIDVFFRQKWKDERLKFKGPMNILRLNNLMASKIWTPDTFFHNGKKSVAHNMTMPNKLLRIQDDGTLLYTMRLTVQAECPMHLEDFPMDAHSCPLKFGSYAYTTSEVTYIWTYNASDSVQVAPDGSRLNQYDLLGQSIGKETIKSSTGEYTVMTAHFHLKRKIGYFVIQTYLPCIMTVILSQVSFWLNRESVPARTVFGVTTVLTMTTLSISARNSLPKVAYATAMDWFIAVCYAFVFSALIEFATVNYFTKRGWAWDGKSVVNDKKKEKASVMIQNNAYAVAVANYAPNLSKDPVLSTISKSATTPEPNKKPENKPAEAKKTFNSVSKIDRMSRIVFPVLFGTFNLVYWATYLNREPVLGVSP
T2 sequence (P28472 26-473): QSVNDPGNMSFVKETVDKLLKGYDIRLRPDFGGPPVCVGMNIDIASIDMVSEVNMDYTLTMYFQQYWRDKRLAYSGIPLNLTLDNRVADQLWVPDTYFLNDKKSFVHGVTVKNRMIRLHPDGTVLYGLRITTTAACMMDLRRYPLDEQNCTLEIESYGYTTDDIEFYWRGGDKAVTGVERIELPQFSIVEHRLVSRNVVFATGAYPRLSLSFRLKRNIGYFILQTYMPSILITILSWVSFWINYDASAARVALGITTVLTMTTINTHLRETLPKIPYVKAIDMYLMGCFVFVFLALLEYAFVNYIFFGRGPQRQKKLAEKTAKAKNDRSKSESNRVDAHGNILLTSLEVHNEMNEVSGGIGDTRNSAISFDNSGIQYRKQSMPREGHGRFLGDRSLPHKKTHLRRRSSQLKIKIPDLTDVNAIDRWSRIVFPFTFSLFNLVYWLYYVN
T2 sequence (P18507 40-475): as the sequence (P18507 40-475) above

With `CCOC(=O)Cc1nnnn1Cc1c2cccc(-c3ccc(Cl)cc3Cl)c2nn1C` [I-7, {1-[7-(2,4-Dichloro-phenyl)-2-meth-yl-2H-indazol-3-yl-methyl]-1H-tetrazol-5-yl}-aceticacid ethyl ester], the IC50 in series [1] is above 10000 nM; in series [2] it was 2690 nM.

Consider `Cn1nc2c(-c3ccc(Cl)cc3Cl)cccc2c1Cc1nnnn1CS(C)(=O)=O` [I-9, 7-(2,4-Dichloro-phenyl)-3-(1-meth-anesulfonylmethyl-1H-tetra-zol-5-ylmethyl)-2-meth-yl-2H-indazole], for which the IC50 in series [1] and in series [2] was above 10000 nM in each case.

For `COC(=O)c1cncn1Cc1c2cccc(-c3ccc(Cl)cc3Cl)c2nn1C` [I-13, 3-[7-(2,4-Dichloro-phenyl)-2-meth-yl-2H-indazol-3-yl-methyl]-3H-imidazole-4-carboxy-lic acid methyl ester], the IC50 in series [2] was 912 nM.

Consider `CCOC(=O)c1nccn1Cc1c2cccc(-c3ccc(Cl)cc3Cl)c2nn1C` [I-14, 1-[7-(2,4-Dichloro-phenyl)-2-meth-yl-2H-indazol-3-yl-methyl]-1H-imidazole-2-carboxy-lic acid ethyl ester], for which the results for the IC50 in series [1] and in series [2] were 4790 nM and 832 nM, respectively.

As for `Cn1nc2c(-c3ccc(Cl)cc3Cl)cccc2c1Cn1ccnn1` [I-16, 7-(2,4-Dichloro-phenyl)-2-meth-yl-3-[1,2,3]triazol-1-yl-methyl-2H-indazole], the values for the IC50 in series [1] and in series [2] were 5890 nM and 1200 nM, respectively.

For the compound `Cn1nc2c(-c3ccc(Cl)cc3Cl)cccc2c1Cn1nccn1` [I-17, 7-(2,4-Dichloro-phenyl)-2-meth-yl-3-[1,2,3]triazol-2-yl-methyl-2H-indazole], the IC50 is above 10000 nM in series [1] and 427 nM in series [2].

For `COCn1ncnc1C(=O)c1c2cccc(-c3ccc(Cl)cc3Cl)c2nn1C` [I-19, [7-(2,4-Dichloro-phenyl)-2-meth-yl-2H-indazol-3-yl]-(2-meth-oxymethyl-2H-[1,2,4]tri-azol-3-yl)-meth-anone], the IC50 in series [1] was above 10000 nM; in series [2], 1620 nM.

For the compound `Cn1nc2c(-c3ccc(Cl)cc3Cl)cccc2c1Cc1ncc[nH]1` [I-21, 7-(2,4-Dichloro-phenyl)-3-(1H-imi-dazol-2-ylmethyl)-2-meth-yl-2H-indazole], the IC50 in series [1] was 3550 nM; in series [2] it was 550 nM.

With `Cn1nc2c(-c3ccc(Cl)cc3Cl)cccc2c1C(=O)c1nccn1CCO` [I-24, [7-(2,4-Dichloro-phenyl)-2-meth-yl-2H-indazol-3-yl]-[1-(2-hydroxy-ethyl)-1H-imi-dazol-2-yl]-methanone], the IC50 in series [1] was 3720 nM; in series [2], 214 nM.

`Cn1nc2c(-c3ccc(Cl)cc3Cl)cccc2c1Cc1cnc[nH]1` [I-25, 7-(2,4-Dichloro-phenyl)-3-(3H-imi-dazol-4-ylmethyl)-2-meth-yl-2H-indazole]: the figures for the IC50 in series [1] and in series [2] were above 10000 nM and 1150 nM, respectively.

As to `CCOC(c1cnc[nH]1)c1c2cccc(-c3ccc(Cl)cc3Cl)c2nn1C` (stereo not drawn) [I-26, 7-(2,4-Dichloro-phenyl)-3-[eth-oxy-(3H-imidazol-4-yl)-meth-yl]-2-methyl-2H-inda-zole], the figures for the IC50 in series [1] and in series [2] were 6170 nM and 513 nM, respectively.

Turning to `Cn1nc2c(-c3ccc(Cl)cc3Cl)cccc2c1C(O)c1cnc[nH]1` (stereo not drawn) [I-27, [7-(2,4-Dichloro-phenyl)-2-meth-yl-2H-indazol-3-yl]-(3H-imi-dazol-4-yl)-methanol], the IC50 is 2340 nM in series [1] and 550 nM in series [2].

With `Cn1nc2c(-c3ccc(Cl)cc3Cl)cccc2c1C(O)c1ncc[nH]1` (stereo not drawn) [I-28, [7-(2,4-Dichloro-phenyl)-2-meth-yl-2H-indazol-3-yl]-(1H-imi-dazol-2-yl)-methanol], the IC50 in series [1] is 575 nM; in series [2], 148 nM.

On to `Cn1nc2c(-c3ccc(Cl)cc3Cl)cccc2c1CC1=NCCN1` [I-29, 7-(2,4-Dichloro-phenyl)-3-(4,5-di-hydro-1H-imidazol-2-yl-methyl)-2-methyl-2H-inda-zole], for which the IC50 in series [1] and in series [2] was above 10000 nM throughout.

For the compound `Cn1nc2c(-c3ccc(Cl)cc3Cl)cccc2c1C(=O)c1ncc[nH]1` [I-30, [7-(2,4-Dichloro-phenyl)-2-meth-yl-2H-indazol-3-yl]-(1H-imi-dazol-2-yl)-meth-anone], the results for the IC50 in series [1] and in series [2] were 4470 nM and 166 nM, respectively.

Regarding `Cn1nnnc1C(O)c1c2cccc(-c3ccc(Cl)cc3Cl)c2nn1C` (stereo not drawn) [I-32, [7-(2,4-Dichloro-phenyl)-2-meth-yl-2H-indazol-3-yl]-(meth-yl-1H-tetrazol-5-yl)-meth-anol], the IC50 is 5890 nM in series [1] and 398 nM in series [2].

In the case of `CN(C)S(=O)(=O)n1ccnc1C(O)c1c2cccc(-c3ccc(Cl)cc3Cl)c2nn1C` (stereo not drawn) [I-35, 2-{[7-(2,4-Dichloro-phenyl)-2-meth-yl-2H-indazol-3-yl]-hydroxy-methyl}-imidazole-1-sulfonicacid dimethyl-amide], in series [1], the IC50 is above 10000 nM.

Take `Cn1nc2c(-c3ccc(Cl)cc3Cl)cccc2c1-c1cnc[nH]1` [I-36, 7-(2,4-Dichloro-phenyl)-3-(3H-imi-dazol-4-yl)-2-meth-yl-2H-indazolehydrochloride]: the IC50 in series [1] is 7240 nM; in series [2] it was 145 nM.

Regarding `Cn1nc2c(-c3ccc(Cl)cc3Cl)cccc2c1Cn1cccn1` [I-37, 7-(2,4-Dichloro-phenyl)-2-meth-yl-3-pyrazol-1-yl-methyl-2H-indazole], the IC50 is 2750 nM in series [1] and 380 nM in series [2].

For the compound `Cn1nc2c(-c3ccc(Cl)cc3Cl)cccc2c1Cn1ccnc1` [I-40, 7-(2,4-Dichloro-phenyl)-3-imi-dazol-1-ylmethyl-2-meth-yl-2H-indazole], the IC50 in series [1] is 4070 nM; in series [2], 1150 nM.

Turning to `Cn1nc2c(-c3ccc(Cl)cc3Cl)cccc2c1Cn1cncn1` [I-42, 7-(2,4-Dichloro-phenyl)-2-meth-yl-3-[1,2,4]triazol-1-yl-methyl-2H-indazole], the IC50 in series [1] is 5010 nM; in series [2], 603 nM.

Consider `Cn1nc2c(-c3ccc(Cl)cc3Cl)cccc2c1Cn1cnnn1` [I-43, 7-(2,4-Dichloro-phenyl)-2-meth-yl-3-tetrazol-1-yl-methyl-2H-indazole], for which the IC50 in series [1] is 8910 nM; in series [2] it was 832 nM.

As for `Cn1nc2c(-c3ccc(Cl)cc3Cl)cccc2c1N1C(=O)CCC1=O` [I-44, 1-[7-(2,4-Dichloro-phenyl)-2-meth-yl-2H-indazol-3-yl]-pyr-rolidine-2,5-dione], the IC50 was above 10000 nM in series [1] and 3630 nM in series [2].

Consider `Cn1nc2c(-c3ccc(Cl)cc3Cl)cccc2c1-c1ncc[nH]1` [I-45, 7-(2,4-Dichloro-phenyl)-3-(1H-imi-dazol-2-yl)-2-meth-yl-2H-indazole], for which the IC50 in series [1] is 5620 nM; in series [2], 537 nM.

As for `Cn1nc2c(-c3ccc(Cl)cc3Cl)cccc2c1Cn1ncnn1` [I-49, 7-(2,4-Dichloro-phenyl)-2-meth-yl-3-tetrazol-2-yl-methyl-2H-indazole], the results for the IC50 in series [1] and in series [2] were 2240 nM and 372 nM, respectively.

Regarding `Cn1nnc(-c2c3cccc(-c4ccc(Cl)cc4Cl)c3nn2C)n1` [I-52, 7-(2,4-Dichloro-phenyl)-2-meth-yl-3-(2-methyl-2H-tetra-zol-5-yl)-2H-indazole], the IC50 in series [1] is 3630 nM; in series [2] it was 141 nM.

Turning to `Cn1nc2c(-c3ccc(Cl)cc3Cl)cccc2c1-c1nnn[nH]1` [I-54, 7-(2,4-Dichloro-phenyl)-2-meth-yl-3-(1H-tetrazol-5-yl)-2H-inda-zole], the IC50 in series [1] is 2950 nM; in series [2], 692 nM.

Take `CCOC(=O)Cc1ncn(Cc2c3cccc(-c4ccc(Cl)cc4Cl)c3nn2C)n1` [I-58, {1-[7-(2,4-Dichloro-phenyl)-2-meth-yl-2H-indazol-3-yl-methyl]-1H-[1,2,4]triazol-3-yl}-aceticacid ethyl ester]: the melting point was 80.8 to 84 °C.

`CCOC(=O)Cc1ncnn1Cc1c2cccc(-c3ccc(Cl)cc3Cl)c2nn1C` [I-59, {2-[7-(2,4-Dichloro-phenyl)-2-meth-yl-2H-indazol-3-yl-methyl]-2H-[1,2,4]triazol-3-yl}-aceticacid ethyl ester] had a melting point of 167.9 to 168.9 °C.
